Measurements taken from patent US20090318465A1, “METHOD FOR IDENTIFYING COMPOUNDS THAT ACT AS INSULIN-SENSITIZERS” (priority 2006, published 2009).
Entries after “also recorded” stand apart in the source; their conditions may differ.

Legend:
[1] = test system: dexamethasone treated insulin resistant 3T3-L1 adipocytes; assay: Insulin resistance assay (IR assay), 14C-2-deoxyglucose uptake; type: cell-based, mouse; settings: for % of Rosiglitazone (comparison with Rosiglitazone): test compound 10 μM/mL versus Rosiglitazone 0.1 μM; for Fold vehicle (fold activity over vehicle): test compound 10 μM/mL, glucose uptake with 200 nM insulin, vehicle = 1.0
From the text: A suitable insulin resistance assay includes screening of compounds which act as insulin-sensitizers using chronically dexamethasone treated 3T3-L1 adipocytes as an in vitro model. This is a known model for studying insulin signaling and insulin resistance. Chronically dexamethasone treated 3T3-L1 adipocytes serve as a valid in vitro model of insulin resistance resembling diabetes patients.
In an embodiment, the method according to the present invention includes screening compounds identified as active in the phenotype-based assay against dexamethasone treated insulin resistant adipocytes. For example, the method can include applying actives from the insulin sensitivity assay at a concentration of 1-10 μM to the insulin resistant adipocytes for 1-4 days. The adipocytes were previously prepared for the assay by long term exposure to dexamethasone, for example, at 100 nM for about 24-48 hours.
The method can also include determining whether the compounds enhance glucose uptake in the insulin resistant adipocytes by more than 50% above that enhanced by insulin. The method can then include selecting compounds as active, if they caused 1.5 fold or more increase in glucose uptake compared to insulin treated adipocytes. Glucose uptake can be measured by any of a variety of known methods, such as measuring uptake of ^14C-labeled 2-deoxyglucose, a non metabolisable analogue of D-Glucose.
The assay was designed as in the reference, British Journal of Pharmacology, 130, 351-58, 2000, which is incorporated herein by reference for disclosure of the assay.
The solution of test compound (10 μM/mL) was prepared in DMSO.
Rosiglitazone (0.1 μM in DMSO) was used as standard.
Differentiation into adipocytes was induced by known methods as described below. (J. Biol. Chem., 260, 2646-2652, 1985, which is incorporated herein by reference for disclosure of the induction).
Culture medium containing […] 1-methyl-3-isobutylxanthine (IBMX), 0.25 μM dexamethasone, 5 μg/ml insulin (bovine/human), 10 mM HEPES buffer and fetal bovine serum (FBS) 10% by volume in Dulbecco's modified Eagle's medium (DMEM) was used for differentiation.
3T3 L1 fibroblasts were seeded in 24-well or 6-well plates at a density of 0.5-2×10^4 cells/well and were allowed to reach maximal confluency.
The confluent fibroblasts were exposed to culture medium for 2 days. After this period, fresh culture medium (DMEM) containing only insulin was used, 10% FBS was added and cultured for 4 days with change of medium every 2 days. After 7 days the cultures received DMEM containing 10% FBS with no exposure to insulin. By the end of 8-10 days, more than 95% of the cells have become differentiated into adipocytes.
The mature adipocytes were exposed to dexamethasone, 100 nM added in ethanol, in culture medium and incubated for 2 days. On the third day, solution of test compound was added along with 100 nM dexamethasone containing medium for 4 days with a change in medium after every 2 days. Vehicle control contained 1% v/v of DMSO. Rosiglitazone was used as a standard and was added at a concentration of 0.1 μM in DMSO, along with 100 nM dexamethasone containing medium for 4 days with a change in medium after every 2 days. After a total period of 6 days, the cells were processed for glucose uptake as follows.
The insulin resistant adipocytes were exposed to serum-free DMEM containing 0.1% bovine serum albumin for 3-4 hours at 37° C. in CO2 atmosphere. The test compound was also present during this period. After 3-4 hours, the medium was aspirated and replaced with Kreb's Ringer phosphate (KRP) buffer at pH 7.4 and with human/porcine insulin, 200 nM. The cells were incubated for 30 minutes at 37° C. At the end of 30 minutes, 0.05 or 0.1 μCi of ^14C-2-deoxyglucose was added to each well of either 24-well or 6-well plates respectively and was incubated for exactly 5 minutes. After exactly 5 minutes, the plates were transferred to ice trays and medium was rapidly aspirated. […]

[2] = test system: genetically diabetic db/db BL/6J mice; assay: Screening in db/db BL/6J mice, plasma glucose reduction; type: in vivo; settings: 10 days
Procedure: In an embodiment, the method includes selecting 6-8 weeks old male db/db mice based on blood glucose levels determined after withholding feed for four hours. For example, the method can employ animals with plasma glucose levels in a suitable range, such as 300-500 mg/dl. The selected mice can be orally dosed with test (lead) compound, for example, in 0.5% carboxy methyl cellulose (CMC) vehicle at a suitable frequency and for a suitable time, such as twice daily for 10 consecutive days. This embodiment of the method can include obtaining blood on, for example, day 5 and day 10, after withholding feed for four hours, and determining plasma glucose levels. These levels can be determined using enzymatic methods (e.g., Diasys kit, Germany) in an autoanalyser. Lead compounds are considered to be in vivo actives if they produce statistically significant fall in plasma glucose on day 10 compared to mice treated with 0.5% CMC vehicle. Rosiglitazone can be used as a standard at 5 mg per kg (mpk) bid for comparison with test compounds.
The protocol was designed as in references. • 1.
The screening of compounds was based on their ability to reduce the plasma glucose levels in genetically diabetic db/db BL/6J mice.
Male db/db mice (obtained from the Animal House of Nicholas Piramal Research Centre, Goregaon, Mumbai, India) were used for this study (body weight in the range of 30-40 g and age is 6-8 weeks) and were kept eight per cage in individually ventilated cages at controlled temperature (22±1° C.) and humidity (45±5%). Food and water were provided ad libitum during their laboratory stay, except for four hours fasting prior to blood sample collection. 12 hours light and dark cycle was followed during the whole study period.
After 4 hours fasting blood samples were collected from mice. Mice showing plasma glucose levels between 300 to 500 mg/dl were divided in groups (8-10 per group) such that the mean plasma glucose levels and variation within the group, for each group, is nearly same. After grouping, mice in respective groups received treatment with 0.5% CMC vehicle, standard compound or test compounds for 10 days. Rosiglitazone was used as a standard.
After 4 hours fasting, mice were anaesthetized using isoflurane (inhalation anesthetic), and blood samples were collected through the retro orbital plexus. Collected blood samples were centrifuged at 7000 rpm for 10 minutes at 4° C.; Separated plasma was used for estimation of plasma glucose using diagnostic kits (Diasys, Germany). Plasma glucose levels of treated groups were normalized with control group using the following formula, which accounted for the changes in control group.

db/db mice = assay: Evaluation of lipid levels (dyslipidemia) in db/db mice; type: in vivo; settings: 15 days
Procedure: (§1) Body weight was measured daily. On day 15, the animals were deprived of food for 4 hours after the last dose administration. Blood was collected at the end of the 4-hour period using heparinised capillaries by a retro-orbital puncture. Plasma samples were analyzed for, triglyceride and cholesterol, using the autoanalyser.
The assay was designed as in the reference, Metabolism, 49 (1), 22-31, 2000, the disclosure of which is incorporated by reference for the teaching of the assay.
as §1, with “Seven groups of male db/db mice (8 animals per group) were used. […] Body” for “Body”, “for glucose, triglyceride,” for “for, triglyceride and”

[3] = test system: diet induced obese (DIO) mice; assay: Evaluation of antiobesity, chronic study in diet induced obese mice; type: in vivo; settings: 10 days, vs vehicle
From the text: In an embodiment, the method includes selecting 17-18 week old male diet induced obese (DIO) mice, which were maintained on a high fat diet (D12451, Research Diets Inc, New Brunswick, N.J. 08901, USA, 45% kcal from fat), based on body weight. The selected mice can be dosed intraperitoneally with test (lead) compound, for example, in 0.5% CMC vehicle at a suitable frequency and for a suitable time, such as once daily for 10 consecutive days. This embodiment of the method can include recording body weight and food weight daily. Lead compounds are considered to be in vivo active if they produce statistically significant decrease in cumulative food intake for up to 1 day and a statistically significant decrease in cumulative body weight gain on day 10 as compared to mice treated with the 0.5% CMC vehicle. Sibutramine can be used as a standard at 3 mpk for comparison.
The assay was designed as in the reference, British Journal of Pharmacology, 132, 1898-1904, 2001, the disclosure of which is incorporated by reference for the teaching of the assay.
Male C57BI6/J mice (3-4 weeks of age) were housed in groups of 10 animals per cage in the animal facility. High fat diet (D12451 Research Diets Inc., New Brunswick, N.J. 08901, USA, 45% kcal from fat) and water was provided ad libitum for 14 weeks. After this period, the animals were housed individually in cages. The animals were weighed and separated into groups with similar body weight. They were acclimatised to the experimental procedures for 2 days. Animals were dosed intraperitoneally with test compound (200 mpk) or the standard (3 mpk) in 10 mL/kg of 0.5% CMC vehicle between 10:00 am-12:00 noon. After drug administration the animals were presented with a pre-weighed amount of food in the food cup. Weight of feed remaining in the cup and body weight were recorded daily just prior to dosing. The change in weight and cumulative food intake were computed.

## COC(=O)C(Cc1ccc(OCCN(C)C(=O)OC(C)(C)C)cc1)(OC)C(=O)OC [Compound 1, 2-{4-[2-(tert-Butoxycarbonyl-methyl-amino)-ethoxy]-benzyl}-2-methoxy-malonic acid dimethyl ether]
[1]
  % of Rosiglitazone (comparison with Rosiglitazone): 72.5 ± 2.6%
  Fold vehicle (fold activity over vehicle): 2.2 ± 0.18
[2]; 100 mpk bid, oral, 4 h fasted
  Normalization with control (plasma glucose reduction): 42.93 ± 4.95

## COC(Cc1ccc(OCCN(C)C(=O)OC(C)(C)C)cc1)C(=O)O (stereo not shown) [Compound 2, 3-{4-[2-(tert-Butoxycarbonyl-methyl-amino)-ethoxy]-phenyl}-2-methoxy-propionic acid]
[1]
  % of Rosiglitazone (comparison with Rosiglitazone): 105 ± 3.6%
  Fold vehicle (fold activity over vehicle): 2.62 ± 0.05
[2]; 100 mpk bid, oral, 4 h fasted
  Normalization with control (plasma glucose reduction): 45.14 ± 4.92

## CC(C)(COC(=O)COc1ccc(C(=O)CN2Cc3cc(C(N)=S)ccc3C2=O)cc1)NS(=O)(=O)c1cccnc1 [Compound 3, {4-[2-(1-Oxo-5-thiocarbamoyl-1,3-dihydro-isoindol-2-yl)-acetyl]-phenoxy}-aceticacid-2-methyl-2-(pyridine-3-sulfonylamino)-propyl ester]
[1]
  % of Rosiglitazone (comparison with Rosiglitazone): 31.6 ± 6.2%
  Fold vehicle (fold activity over vehicle): 1.48 ± 0.09
[2]; 50 mpk od
  Normalization with control (plasma glucose reduction): Inactive

## CCOC(=O)CCN1Cc2cc(NCCN(C)c3nc4ccccc4o3)ccc2C1=O [Compound 4, 3-{5-[2-(Benzooxazol-2-yl-methyl-amino)-ethylamino]-1-oxo-1,3-dihydro-isoindol-2-yl}propionic acid ethyl ester]
[1]
  % of Rosiglitazone (comparison with Rosiglitazone): 76.8 ± 12.4%
  Fold vehicle (fold activity over vehicle): 1.88 ± 0.14
[2]; 50 mpk bid
  Normalization with control (plasma glucose reduction): 24.99 ± 17.92

## O=S(=O)(Nc1cnc(Oc2cc3ccccc3cn2)c(Cl)c1)c1ccc(Cl)cc1Cl [Compound 5, 2,4-Dichloro-N-[5-chloro-6-(isoquinolin-3-yloxy)pyridin-3-yl]-benzene sulfonamide]
[1]
  % of Rosiglitazone (comparison with Rosiglitazone): 78.7 ± 3.5%
  Fold vehicle (fold activity over vehicle): 2.41 ± 0.06
db/db mice; doses higher than 50 mpk oral bid
  reduction in cholesterol levels: 26%
[2]; 150 mpk od
  Normalization with control (plasma glucose reduction): 43.2 ± 15.7

## CC(=O)N1CCN(c2ccc(Oc3ncc(NS(=O)(=O)c4ccc(Cl)cc4Cl)cc3Cl)cc2)CC1 [Compound 6, N-{6-[4-(4-Acetyl-piperazin-1-yl)-phenoxy]-5-chloro-pyridin-3-yl}-2,4-dichloro benzenesulfonamide]
[1]
  % of Rosiglitazone (comparison with Rosiglitazone): 61.4 ± 3.15%
  Fold vehicle (fold activity over vehicle): 2.10 ± 0.05
[3]; 200 mpk intraperitoneally, FIG. 4, 200 mg/kg
  cumulative food intake: effective in reducing cumulative food intake; also recorded: significantly inhibited food intake
[3]; 200 mpk intraperitoneally, FIG. 5, 200 mg/kg
  cumulative body weight gain: effective in reducing cumulative body weight gain; also recorded: inhibited body weight gain on all days
[2]; 100 mpk bid, oral, 4 h fasted
  Normalization with control (plasma glucose reduction): 46.07 ± 4.55

## CC(=O)N1CCN(c2ccc(Oc3ncc(NC(=O)CCC(=O)O)cc3Cl)cc2)CC1 [Compound 7]
[1]
  % of Rosiglitazone (comparison with Rosiglitazone): 27.5 ± 3.0%
  Fold vehicle (fold activity over vehicle): 1.49 ± 0.05
[2]; 100 mpk bid, oral, 4 h fasted
  Normalization with control (plasma glucose reduction): Inactive

## COc1ccc(S(=O)(=O)Nc2cnc(Oc3cnc4ccccc4c3)c(Cl)c2)cc1 [Compound 8, N-[5-Chloro-6-(quinolin-3-yloxy)-pyridine-3-yl]-4-methoxy-benzene sulfonamide]
[1]
  % of Rosiglitazone (comparison with Rosiglitazone): 66.4 ± 5.2%
  Fold vehicle (fold activity over vehicle): 2.19 ± 0.09
[2]; 100 mpk bid, oral, 4 h fasted
  Normalization with control (plasma glucose reduction): 41.90 ± 3.84

## CN(CCOc1ccc(CC2SC(=O)NC2=O)cc1)c1ccccn1 (stereo not shown) [Rosiglitazone]
db/db mice; Rosiglitazone 5 mpk oral bid
  decrease in plasma triglyceride levels: 40%
  reduction in cholesterol levels: 27%

## CC(C)CC(N(C)C)C1(c2ccc(Cl)cc2)CCC1 (stereo not shown) [Sibutramine, reference compound]
[3]; standard 3 mpk intraperitoneally, FIG. 4
  cumulative food intake: significantly inhibited food intake
[3]; standard 3 mpk intraperitoneally, FIG. 5
  cumulative body weight gain: inhibited body weight gain on all days
